Results on five molecules are retold here after patent US12281149B2, “Modulators of G-protein coupled receptors” (priority 2021, dated 2025).

*1 amine or outer side, *2 acyl side, *3 side chain or, on linkers, in order; H or OH if unused. Where a SMILES comes first, the peptide text is derived from it. Side-chain parts run from the residue outwards. [ ]: non-standard residue; d: D form. The star is where a group is joined. C20 diacid = O=C(O)CCCCCCCCCCCCCCCCCCC(=O)*; X56 = CC(C)(C(=O)*)c1cc(F)cc(C(N)=O)c1; γGlu = O=C(O)[C@H](CCC(=O)[*:2])N[*:1]; X53 = CC(C)(C(=O)*)c1cc(F)cc(F)c1; NH(4-F-phenyl) = Fc1ccc(N*)cc1; X4 = O=C(C(F)(F)c1ccc(F)cc1)*; X82 = CC(C)(C(=O)*)n1cc(N)cn1; AEEA = NCCOCCOCC(=O)O; Aib = CC(C)(N)C(=O)O; CO = O=C([*:1])[*:2]; GABA = NCCCC(=O)O; βAla = NCCC(=O)O

What all share (assay type): cell-based
The target in experiment [1] is T1, GLP-1 receptor (Homo sapiens, UniProt P43220). Briefly: HitHunter cAMP assay, GLP-1 receptor. Particulars: for EC50: CHO cells stably expressing human GLP-1 receptor, cAMP accumulation, 30 min, read-out: EC50 GLP-1R; for Emax: CHO cells, cAMP, normalized to maximum signal from GLP-1 (high) and DMSO (low), read-out: Emax GLP-1R. (In general: Cyclic AMP is a second messenger, typically raised through Gs and lowered through Gi signalling.)
T1 sequence (P43220 24-463): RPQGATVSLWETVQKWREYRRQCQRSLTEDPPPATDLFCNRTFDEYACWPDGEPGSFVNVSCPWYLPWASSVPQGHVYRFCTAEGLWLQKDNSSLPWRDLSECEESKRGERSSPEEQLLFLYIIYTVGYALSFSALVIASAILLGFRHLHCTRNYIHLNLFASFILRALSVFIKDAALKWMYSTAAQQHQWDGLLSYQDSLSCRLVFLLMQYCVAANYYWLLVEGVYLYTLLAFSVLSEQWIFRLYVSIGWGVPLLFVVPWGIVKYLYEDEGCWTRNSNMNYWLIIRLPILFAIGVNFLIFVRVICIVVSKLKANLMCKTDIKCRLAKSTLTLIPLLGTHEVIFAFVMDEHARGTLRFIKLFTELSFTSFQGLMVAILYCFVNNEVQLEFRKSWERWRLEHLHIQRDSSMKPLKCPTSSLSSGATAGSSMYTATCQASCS

For experiment [2], the target named is T2, GIP receptor (Homo sapiens, UniProt P48546).
T2 sequence (P48546 22-466): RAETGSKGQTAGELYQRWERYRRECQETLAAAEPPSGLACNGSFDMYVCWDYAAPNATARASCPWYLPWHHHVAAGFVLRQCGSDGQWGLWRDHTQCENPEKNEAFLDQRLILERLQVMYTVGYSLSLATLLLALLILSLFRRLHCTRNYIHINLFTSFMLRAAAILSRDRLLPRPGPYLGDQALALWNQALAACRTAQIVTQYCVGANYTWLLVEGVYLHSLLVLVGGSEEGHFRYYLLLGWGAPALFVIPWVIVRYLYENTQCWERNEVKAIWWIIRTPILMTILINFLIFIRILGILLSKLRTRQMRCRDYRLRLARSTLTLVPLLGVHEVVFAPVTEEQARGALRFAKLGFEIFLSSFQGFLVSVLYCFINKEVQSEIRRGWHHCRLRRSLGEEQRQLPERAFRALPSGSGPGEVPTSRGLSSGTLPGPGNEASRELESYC
Briefly: HitHunter cAMP assay, GIP receptor. Particulars: for EC50: CHO cells stably expressing GIP receptor, cAMP accumulation, 30 min, read-out: EC50 GIP-1R; for Emax: CHO cells, cAMP, normalized to maximum signal from GIP (high) and DMSO (low), read-out: Emax GIP-1R.

Experiment [3] addresses T2, GIP receptor. Briefly: PathHunter β-arrestin assay, GIP receptor. Details: host or cells: PathHunter CHO-K1 GIPR β-Arrestin Cell Line. Particulars: β-arrestin-2 recruitment, PathHunter CHO-K1 GIPR β-Arrestin Cell Line, 90 min at 37° C.; normalized to GIP; read-out: GIPR β Arrestin EC50. A general note: Arrestin recruitment assays detect the binding of arrestin to an activated receptor.

Experiment [4] concerns the target T1, GLP-1 receptor. The experiment in a line: PathHunter β-arrestin assay, GLP-1 receptor. Also noted: host or cells: PathHunter CHO-K1 GLP1R β-Arrestin Cell Line. Particulars: β-arrestin-2 recruitment, PathHunter CHO-K1 GLP1R β-Arrestin Cell Line, 90 min at 37° C.; normalized to GLP-1; read-out: GLP-1R β Arrestin EC50.

As usually defined, the EC50 is the concentration needed to bring the measured effect to its halfway point. The Emax is the size of the effect at its maximum, as opposed to the concentration needed.

Consider `CC[C@H](C)[C@H](NC(=O)[C@H](CC(C)C)NC(=O)[C@H](Cc1c[nH]c2ccccc12)NC(=O)[C@H](CCC(N)=O)NC(=O)[C@@H](NC(=O)[C@H](Cc1ccccc1)NC(=O)[C@H](C)NC(=O)[C@H](CCCCNC(=O)COCCOCCNC(=O)COCCOCCNC(=O)CC[C@H](NC(=O)CCCCCCCCCCCCCCCCCCC(=O)O)C(=O)O)NC(=O)[C@H](CCC(N)=O)NC(=O)[C@H](C)NC(=O)[C@@H](NC(=O)[C@H](CCCCN)NC(=O)[C@H](CC(=O)O)NC(=O)[C@H](CC(C)C)NC(=O)C(C)(C)NC(=O)[C@@H](NC(=O)[C@H](CO)NC(=O)[C@H](Cc1ccc(O)cc1)NC(=O)[C@H](CC(=O)O)NC(=O)[C@H](CO)NC(=O)[C@@H](NC(=O)[C@H](Cc1ccccc1)NC(=O)[C@@H](NC(=O)CNC(=O)[C@H](CCC(=O)O)NC(=O)CCNC(=O)C(C)(C)c1cc(F)cc(C(N)=O)c1)[C@@H](C)O)[C@@H](C)O)[C@@H](C)CC)[C@@H](C)CC)C(C)C)C(=O)N[C@@H](C)C(=O)NCC(=O)NCC(=O)N1CCC[C@H]1C(=O)N[C@@H](CO)C(=O)N[C@@H](CO)C(=O)NCC(=O)N[C@@H](C)C(=O)N1CCC[C@H]1C(=O)N1CCC[C@H]1C(=O)N1CCC[C@H]1C(=O)N[C@@H](CO)C(N)=O` [Compound 159] ({X56-βAla}-EGTFTSDYSI[Aib]LDKIAQK([AEEA-AEEA-γGlu-C20 diacid])AFVQWLIAGGPSSGAPPPS-NH2), for which the 50% effective concentration (EC50) was 1 to 10 nM in experiment [1], 10 to 100 nM in experiment [2], more than 1000 nM in experiment [3] and more than 1000 nM in experiment [4]. Further, the Emax in experiment [1] was 100%; in experiment [2], 104%.
For the molecule `CC[C@H](C)[C@H](NC(=O)[C@H](CC(C)C)NC(=O)[C@H](Cc1c[nH]c2ccccc12)NC(=O)[C@H](CCC(N)=O)NC(=O)[C@@H](NC(=O)[C@H](Cc1ccccc1)NC(=O)[C@H](C)NC(=O)[C@H](CCCCNC(=O)COCCOCCNC(=O)COCCOCCNC(=O)CC[C@H](NC(=O)CCCCCCCCCCCCCCCCCCC(=O)O)C(=O)O)NC(=O)[C@H](CCC(N)=O)NC(=O)[C@H](C)NC(=O)[C@@H](NC(=O)[C@H](CCCCN)NC(=O)[C@H](CC(=O)O)NC(=O)[C@H](CC(C)C)NC(=O)C(C)(C)NC(=O)[C@@H](NC(=O)[C@H](CO)NC(=O)[C@H](Cc1ccc(O)cc1)NC(=O)[C@H](CC(=O)O)NC(=O)[C@H](CO)NC(=O)[C@@H](NC(=O)[C@H](Cc1ccccc1)NC(=O)[C@@H](NC(=O)CNC(=O)[C@H](CCC(=O)O)NC(=O)CCNC(=O)C(C)(C)c1cc(F)cc(F)c1)[C@@H](C)O)[C@@H](C)O)[C@@H](C)CC)[C@@H](C)CC)C(C)C)C(=O)N[C@@H](C)C(=O)NCC(=O)NCC(=O)N1CCC[C@H]1C(=O)N[C@@H](CO)C(=O)N[C@@H](CO)C(=O)NCC(=O)N[C@@H](C)C(=O)N1CCC[C@H]1C(=O)N1CCC[C@H]1C(=O)N1CCC[C@H]1C(=O)N[C@@H](CO)C(N)=O` [Compound 173] ({X53-βAla}-EGTFTSDYSI[Aib]LDKIAQK([AEEA-AEEA-γGlu-C20 diacid])AFVQWLIAGGPSSGAPPPS-NH2), the 50% effective concentration (EC50) in experiment [1] is less than 0.1 nM; in experiment [2], 1 to 10 nM; in experiment [3], more than 1000 nM; in experiment [4], more than 1000 nM. In addition, the values for the Emax in experiment [1] and in experiment [2] were 98% and 103%, respectively.
`CC[C@H](C)[C@H](NC(=O)[C@H](CC(C)C)NC(=O)[C@H](Cc1c[nH]c2ccccc12)NC(=O)[C@H](CCC(N)=O)NC(=O)[C@@H](NC(=O)[C@H](Cc1ccccc1)NC(=O)[C@H](C)NC(=O)[C@H](CCCCNC(=O)COCCOCCNC(=O)COCCOCCNC(=O)CC[C@H](NC(=O)CCCCCCCCCCCCCCCCCCC(=O)O)C(=O)O)NC(=O)[C@H](CCC(N)=O)NC(=O)[C@H](C)NC(=O)[C@@H](NC(=O)[C@H](CCCCN)NC(=O)[C@H](CC(=O)O)NC(=O)[C@H](CC(C)C)NC(=O)C(C)(C)NC(=O)[C@@H](NC(=O)[C@H](CO)NC(=O)[C@H](Cc1ccc(O)cc1)NC(=O)[C@H](CC(=O)O)NC(=O)[C@H](CO)NC(=O)[C@@H](NC(=O)[C@H](Cc1ccccc1)NC(=O)[C@@H](NC(=O)CNC(=O)[C@H](CCC(=O)O)NC(=O)CCCNC(=O)CNC(=O)Nc1ccc(F)cc1)[C@@H](C)O)[C@@H](C)O)[C@@H](C)CC)[C@@H](C)CC)C(C)C)C(=O)N[C@@H](C)C(=O)NCC(=O)NCC(=O)N1CCC[C@H]1C(=O)N[C@@H](CO)C(=O)N[C@@H](CO)C(=O)NCC(=O)N[C@@H](C)C(=O)N1CCC[C@H]1C(=O)N1CCC[C@H]1C(=O)N1CCC[C@H]1C(=O)N[C@@H](CO)C(N)=O` [Compound 268] ({NH(4-F-phenyl)-CO}-G[GABA]EGTFTSDYSI[Aib]LDKIAQK([AEEA-AEEA-γGlu-C20 diacid])AFVQWLIAGGPSSGAPPPS-NH2): the EC50 in experiment [1] was 1 to 10 nM; in experiment [2], 1 to 10 nM; in experiment [3], more than 1000 nM; in experiment [4], more than 1000 nM. Besides, the Emax in experiment [1] stood at 95%; in experiment [2] it was 103%.
With `CC[C@H](C)[C@H](NC(=O)[C@H](CC(C)C)NC(=O)[C@H](Cc1c[nH]c2ccccc12)NC(=O)[C@H](CCC(N)=O)NC(=O)[C@@H](NC(=O)[C@H](Cc1ccccc1)NC(=O)[C@H](C)NC(=O)[C@H](CCCCNC(=O)COCCOCCNC(=O)COCCOCCNC(=O)CC[C@H](NC(=O)CCCCCCCCCCCCCCCCCCC(=O)O)C(=O)O)NC(=O)[C@H](CCC(N)=O)NC(=O)[C@H](C)NC(=O)[C@@H](NC(=O)[C@H](CCCCN)NC(=O)[C@H](CC(=O)O)NC(=O)[C@H](CC(C)C)NC(=O)C(C)(C)NC(=O)[C@@H](NC(=O)[C@H](CO)NC(=O)[C@H](Cc1ccc(O)cc1)NC(=O)[C@H](CC(=O)O)NC(=O)[C@H](CO)NC(=O)[C@@H](NC(=O)[C@H](Cc1ccccc1)NC(=O)[C@@H](NC(=O)CNC(=O)[C@H](CCC(=O)O)NC(=O)CCNC(=O)C(F)(F)c1ccc(F)cc1)[C@@H](C)O)[C@@H](C)O)[C@@H](C)CC)[C@@H](C)CC)C(C)C)C(=O)N[C@@H](C)C(=O)NCC(=O)NCC(=O)N1CCC[C@H]1C(=O)N[C@@H](CO)C(=O)N[C@@H](CO)C(=O)NCC(=O)N[C@@H](C)C(=O)N1CCC[C@H]1C(=O)N1CCC[C@H]1C(=O)N1CCC[C@H]1C(=O)N[C@@H](CO)C(N)=O` [Compound 188] ({X4-βAla}-EGTFTSDYSI[Aib]LDKIAQK([AEEA-AEEA-γGlu-C20 diacid])AFVQWLIAGGPSSGAPPPS-NH2), the concentration for a half-maximal effect (EC50) in experiment [1] was 0.1 to 1 nM; in experiment [2], 10 to 100 nM; in experiment [3], more than 1000 nM; in experiment [4], more than 1000 nM. The Emax came to 91% in experiment [1] and 79% in experiment [2].
Regarding `CC[C@H](C)[C@H](NC(=O)[C@H](CC(C)C)NC(=O)[C@H](Cc1c[nH]c2ccccc12)NC(=O)[C@H](CCC(N)=O)NC(=O)[C@@H](NC(=O)[C@H](Cc1ccccc1)NC(=O)[C@H](C)NC(=O)[C@H](CCCCNC(=O)COCCOCCNC(=O)COCCOCCNC(=O)CC[C@H](NC(=O)CCCCCCCCCCCCCCCCCCC(=O)O)C(=O)O)NC(=O)[C@H](CCC(N)=O)NC(=O)[C@H](C)NC(=O)[C@@H](NC(=O)[C@H](CCCCN)NC(=O)[C@H](CC(=O)O)NC(=O)[C@H](CC(C)C)NC(=O)C(C)(C)NC(=O)[C@@H](NC(=O)[C@H](CO)NC(=O)[C@H](Cc1ccc(O)cc1)NC(=O)[C@H](CC(=O)O)NC(=O)[C@H](CO)NC(=O)[C@@H](NC(=O)[C@H](Cc1ccccc1)NC(=O)[C@@H](NC(=O)CNC(=O)[C@H](CCC(=O)O)NC(=O)CCNC(=O)C(C)(C)n1cc(N)cn1)[C@@H](C)O)[C@@H](C)O)[C@@H](C)CC)[C@@H](C)CC)C(C)C)C(=O)N[C@@H](C)C(=O)NCC(=O)NCC(=O)N1CCC[C@H]1C(=O)N[C@@H](CO)C(=O)N[C@@H](CO)C(=O)NCC(=O)N[C@@H](C)C(=O)N1CCC[C@H]1C(=O)N1CCC[C@H]1C(=O)N1CCC[C@H]1C(=O)N[C@@H](CO)C(N)=O` [Compound 157] ({X82-βAla}-EGTFTSDYSI[Aib]LDKIAQK([AEEA-AEEA-γGlu-C20 diacid])AFVQWLIAGGPSSGAPPPS-NH2), the EC50 in experiment [1] is 0.1 to 1 nM; in experiment [2], 10 to 100 nM; in experiment [3] it was more than 1000 nM; in experiment [4] it was more than 1000 nM. Further, the Emax in experiment [1] turned out to be 100%; in experiment [2], 106%.
